A short description of series [1]: Peptide binding to heparin studied by ITC. As to conditions: heparin into peptide, PBS, one site model, average of two experiments. In general terms: Isothermal titration calorimetry measures the heat released or taken up as one component is titrated into another.
Series [2] in a line: Peptide binding to POPG LUVs studied by ITC. As to conditions: POPG LUVs into peptide, PBS, one site model, once or twice.
A short description of series [3]: Perturbation of DMPG membrane organization probed by DSC. The conditions noted are these: DMPG MLVs 1 mg/mL in PBS, peptide-to-lipid ratio 1/50, 1°C/min, 0-50°C. It counts as physicochemical.
Series [4] in a line: Peptide secondary structure by ATR-FTIR in the absence or presence of heparin. It counts as physicochemical. The conditions noted are these: for Percentage of structural elements: β-strand: ATR-FTIR amide I deconvolution, 1627 cm^-1; for Percentage of structural elements: Random coil / Percentage of structural elements: α-Helix / Percentage of structural elements: Turn: ATR-FTIR; for Percentage of structural elements: Random coil: 1643 cm^-1; for Percentage of structural elements: α-Helix: 1659 cm^-1; for Percentage of structural elements: Turn: 1679 cm^-1.

[5] abbreviates: +Hep (8.3 µM heparin, peptide per ITC stoichiometry).

As to RRDWDWRRDWRR [Peptide R6DW3], the figures for the TΔS in series [1] and in series [2] were -80.5 kcal/mol and 6.2 kcal/mol, respectively. Besides, the ΔH in series [1] is listed as -91.1 kcal/mol; in series [2], -0.74 kcal/mol. Also, the “effect on DMPG bilayer organization (phase transitions)” value in series [3] is listed as “almost identical to that of aR6W3”.

As to RRRRWRRRR [Peptide R8W1-1], the figures for the TΔS in series [1] and in series [2] were -71.5 kcal/mol and 6.2 kcal/mol, respectively. In addition, the ΔH is recorded as -81.7 kcal/mol in series [1] and -0.72 kcal/mol in series [2].

With RRRRRRRRR [Peptide R9], in series [1], the TΔS is given as -60.5 kcal/mol and the ΔH is -71.7 kcal/mol. Further, in series [2], the TΔS was found to be 7.4 kcal/mol and the ΔH is on record as -0.60 kcal/mol.

On to RRRWRRWRR [aR7W2], for which, in series [1], the TΔS is listed as -86.3 kcal/mol and the ΔH is listed as -96.8 kcal/mol. For the same sequence, in series [4] (peptide alone, 100 µM in PBS), the “Percentage of structural elements: β-strand” value (“Percentage … β-strand” below) worked out at 22%, the “Percentage of structural elements: Random coil” value (shortened to “Percentage … Random coil”) was 18%, the “Percentage of structural elements: α-Helix” value (“Percentage … α-Helix” for short) stood at 25% and the “Percentage of structural elements: Turn” value is 35%. Also, in series [4] (setting [5]), the “Percentage … Random coil” value was 20%, the “Percentage … α-Helix” value is 26% and the “Percentage of structural elements: Turn” value is listed as 37%. Moreover, in series [2], the TΔS came out at 6.2 kcal/mol and the ΔH is listed as -0.84 kcal/mol.

In the case of RRWRRRRWW [nR6W3], in series [1], the TΔS is listed as -113.0 kcal/mol and the ΔH is -123.3 kcal/mol. Further, in series [4] (peptide alone, 100 µM in PBS), the “Percentage … β-strand” value amounted to 21%, the “Percentage … Random coil” value was 23%, the “Percentage … α-Helix” value came out at 25% and the “Percentage of structural elements: Turn” value is recorded as 31%. In series [4] (setting [5]), the “Percentage … Random coil” value is reported as 24%, the “Percentage … α-Helix” value is 27% and the “Percentage of structural elements: Turn” value worked out at 22%. For the same sequence, in series [2], the TΔS was determined as 6.5 kcal/mol and the ΔH was -1.27 kcal/mol.

Regarding RWRWRRRRR [nR7W2], in series [1], the TΔS is listed as -82.9 kcal/mol and the ΔH is reported as -93.5 kcal/mol. For the same sequence, in series [2], the TΔS is on record as 6.7 kcal/mol and the ΔH is given as -0.81 kcal/mol.

For the sequence RRWWRRWRR [aR6W3], in series [1], the TΔS is reported as -105.6 kcal/mol and the ΔH is -116.4 kcal/mol. Also, in series [4] (peptide alone, 100 µM in PBS), the “Percentage … β-strand” value was found to be 13%, the “Percentage … Random coil” value came out at 17%, the “Percentage … α-Helix” value worked out at 30% and the “Percentage of structural elements: Turn” value is given as 40%. Further, in series [4] (setting [5]), the “Percentage … Random coil” value is on record as 24%, the “Percentage … α-Helix” value is given as 28% and the “Percentage of structural elements: Turn” value was found to be 40%. Besides, in series [2], the TΔS is reported as 5.7 kcal/mol and the ΔH is given as -1.39 kcal/mol.

For the sequence RRRRRRRRW [Peptide R8W1-2], the TΔS is reported as -82.0 kcal/mol in series [1] and 6.7 kcal/mol in series [2]. The ΔH in series [1] is -92.3 kcal/mol; in series [2] it was -0.79 kcal/mol.

For the sequence RWWWWRRRR [nR5W4], in series [1], the TΔS was -169.0 kcal/mol and the ΔH was -179.3 kcal/mol. Besides, in series [4] (peptide alone, 100 µM in PBS), the “Percentage … β-strand” value is 17%, the “Percentage … Random coil” value is 22%, the “Percentage … α-Helix” value stood at 26% and the “Percentage of structural elements: Turn” value worked out at 35%. For the same sequence, in series [4] (setting [5]), the “Percentage … Random coil” value came to 22%, the “Percentage … α-Helix” value is recorded as 26% and the “Percentage of structural elements: Turn” value was 32%. For the same sequence, in series [2], the TΔS was found to be 5.7 kcal/mol and the ΔH is recorded as -2.10 kcal/mol.

Take RRWWRRWWR [aR5W4]: in series [1], the TΔS is reported as -165.9 kcal/mol and the ΔH is listed as -176.6 kcal/mol. Besides, in series [4] (peptide alone, 100 µM in PBS), the “Percentage … β-strand” value was found to be 11%, the “Percentage … Random coil” value was 24%, the “Percentage … α-Helix” value is recorded as 29% and the “Percentage of structural elements: Turn” value is 36%. Also, in series [4] (setting [5]), the “Percentage … Random coil” value is 20%, the “Percentage … α-Helix” value amounted to 30% and the “Percentage of structural elements: Turn” value is recorded as 30%. Besides, in series [2], the TΔS worked out at 5.0 kcal/mol and the ΔH was -2.53 kcal/mol.

The record behind these values is doi:10.1101/717207v1 (bioRxiv, 2019).
